Laboratory results: the supplement of paper PMC9912026

System: A375_Cra_F7_5/13
Test: pERK immunofluorescence, normalised; higher = more ERK phosphorylation
Conditions: vemurafenib 0 µM, EGF 0 ng/mL, drug treatment time 24 h
Method: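 A375 or A375 CRISPRa-EGFR (A375_Cra_F7_5/13) cells were adapted for 24 h to a cobimetinib dose series, with or without 1 uM vemurafenib, then stimulated with EGF (100 ng/mL) or mock medium and fixed at the indicated times. pERK was measured by immunofluorescence as the population mean normalised to baseline, with the SD of technical replicates (n=2).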

O=C(c1ccc(F)c(F)c1Nc1ccc(I)cc1F)N1CC(O)([C@@H]2CCCCN2)C1 [cobimetinib]
pERK immunofluorescence
Conditions	cobimetinib 31.62 pM	cobimetinib 0.0001 µM	cobimetinib 0.000316228 µM	cobimetinib 0.001 µM	cobimetinib 0.003162278 µM	cobimetinib 0.01 µM	cobimetinib 0.031622777 µM	cobimetinib 0.1 µM	cobimetinib 0.316227766 µM	cobimetinib 1 µM
time after EGF/mock 0.083 h	0.992	1.01	0.951	0.771	0.467	0.234	0.142	0.111	0.0968	0.0989
time after EGF/mock 0.5 h	0.968	0.9446	0.859	0.742	0.422	0.214	0.177	0.143	0.0997	0.09394
time after EGF/mock 2 h	1.05	1.018	1.03	0.8492	0.55	0.217	0.121	0.107	0.1	0.099798
time after EGF/mock 8 h	0.974	0.999	0.9603	0.801	0.47	0.189	0.102	0.086	0.082	0.082503
time after EGF/mock 24 h	1.07	1.053	1.04	0.927	0.531	0.189	0.116	0.1	0.08927	0.0841
